# Data published in patent publication US8664209B2, “Daptomycin for multiple sclerosis” (priority 2009, dated 2014).
# Like-named read-outs stand apart in the source and are kept apart here.
# What was measured:
# Format in all cases: in vivo, human
# [1] = test system: person with multiple sclerosis with almost weekly relapses; test: Patient B case: daptomycin for relapses (Example 2); details: for ambulation: acute relapse (nonambulatory)
# Source text: This is described in more detail in Example 2. Patient B is a person who was first diagnosed with multiple sclerosis in 1981. The course of their illness was characterized through the years by increasingly frequent relapses and progressive disability. They had initially been treated with azathioprine and, subsequently with interferons, including Betaseron™ and Avonex®, and Copaxone®. As adjunct treatments, they received innumerable courses of intravenous methylprednisolone, as well as cyclophosphamide, since 2005. In addition, they have also received mycophenylate mofetil, plasma exchange monthly, intravenous immunoglobulin monthly, natalizumab, daclizumab and rituximab. None of these regimens adequately controlled their many relapses, which were characterized by worsening gait and appendicular ataxia, weakness in their limbs, vertigo and diplopia and severe migraine headaches. In late 2008 and 2009, they were hospitalized seven times for relapses. Since 2005, they had received more than 50 courses of steroid and/or cyclophosphamide treatments for relapses not requiring hospitalization. These treatments would induce partial and short lasting remissions. During 2009, they were having relapses on a weekly basis. During remissions, they were able to walk only with a walker. Daptomycin 4 mg/kg intravenously [hereinafter “IV”] was administered to patient B for five days for an acute relapse which made the patient nonambulatory. […] They did have an allergic reaction with chest tightness and blistering at the injection site that was determined to be caused by the tape securing their IV catheter. […] Daptomycin 4 mg/kg/IV was administered for five additional days with pretreatment with solumedrol in the total amount of 100 mg IV and diphenhydramine in the total amount of 50 mg IV with improvement. Daptomycin was then ordered 4 mg/kg/IV once a week. Three days after their first weekly dose, they began to feel more off balanced and their headache became more severe. Daptomycin orders were revised to 4 mg/kg IV once a week in co-administration with solumedrol 1 gram IV.
# [2] = test system: person with secondary progressive multiple sclerosis (SPMS); test: Patient A case: daptomycin given for MRSA infection (Examples 1, 3); details: for muscle and nerve pain, muscle stiffness: patient-reported
# Source text: The novel use of daptomycin in the treatment and/or prevention of multiple sclerosis in mammals, particularly human, is based on the recent observation of a patient (Patient A) with multiple sclerosis whose progressive neurological disability stabilized after treatment with daptomycin for skin infections caused by methicillin resistant Staphalococcus aureus. Previously, their neurological disability had progressed despite treatment with standard FDA approved therapies as well as investigational therapies, some of which they developed severe allergic reactions to. […] More detail about Patient A is provided in Example 3. Patient A is a person who has suffered from multiple sclerosis. Their disease started with left arm and leg weakness. During the early course of the disease, they experienced frequent relapses. Progressive relapsing continued, with increasing lower extremity weakness. The patient characterized their left arm as feeling like dead weight. Patient A developed diverticulitis in 2006. Their EDSS (Expanded Disability Status Scale) was 5.5 in February, 2007, i.e., patient was able to walk 100 meters without aid or rest; their EDSS was 6.0 by the end of the year, i.e., patient required intermittent or constant assistance with a cane, crutch or brace to walk 100 meters. Daptomycin therapy was initiated to treat a MRSA infection after Patient A had knee surgery. They received a daptomycin dose of 100 mg for four weeks. Three months later, they had re-treatment with 500 mg daily for about four weeks.
# [3] = test system: patients with progressive and relapsing forms of multiple sclerosis
# Experimental: Seventeen patients with relapsing remitting (4 patients) and chronic progressive multiple sclerosis […] have received daptomycin therapy at 4 mg/kg IV for periods ranging from five to 21 days. This patient group included Patient A and Patient B from the above examples.
# Four out of seventeen patients have received daptomycin for acute relapses, after not responding to, or wishing to be taken of, solumedrol therapy.
# Thirteen patients with chronic progressive multiple sclerosis received daptomycin therapy for symptoms of multiple sclerosis that were progressing, or to improve present symptoms. […] In all chronic progressive patients who report responses to the drug, maintenance doses starting with once a week with or without the addition of intravenous corticosteroids are given. Doses of daptomycin 2 mg/kg are given to patients who report fatigue as a significant side effect.
# Overall, in the same study, daptomycin was administered to a total of 30 patients. 14 responded to treatment (47%).
# Daptomycin was administered as a daily IV infusion at 3 mg/kg, 4 mg/kg or 6 mg/kg as per standard guidelines for 5 to 21 days, then as a maintenance dose of 3 mg/kg, 4 mg/kg or 6 mg/kg once every one to four weeks. Patients were monitored by telephone calls. CPK levels were done as clinically indicated. Patients were selected on the basis of failure or intolerance on other treatments and continued disease activity.
# [4] = Patient A, listed as daptomycin
# [5] = RPMS (relapsing progressive MS)
# [6] = patient thirteen, SPMS, DD 4 yrs, EDSS pretx 4, 4 mg/kg/d × five days (relapse), status D (discontinued)
# [7] = secondary progressive MS (SPMS)
structure (smiles),measurement,setting,value
"CCCCCCCCCC(=O)N[C@@H](Cc1c[nH]c2ccccc12)C(=O)N[C@H](CC(N)=O)C(=O)N[C@@H](CC(=O)O)C(=O)N[C@@H]1C(=O)NCC(=O)N[C@@H](CCCN)C(=O)N[C@@H](CC(=O)O)C(=O)N[C@H](C)C(=O)N[C@@H](CC(=O)O)C(=O)NCC(=O)N[C@H](CO)C(=O)N[C@@H]([C@H](C)CC(=O)O)C(=O)N[C@@H](CC(=O)c2ccccc2N)C(=O)O[C@@H]1C [Daptomycin, N-decanoyl-L-trypotophyl-D-asparaginyl-L-aspartyl-L-threonylglycyl-L-ornithyl-L-aspartyl-D-alanyl-L-aspartylglycyl-D-seryl-threo-3-methyl-L-glutamyl-3-anthraniloyl-L-alanine ε1-lactone]",ambulation,"[1]; 4 mg/kg IV for five days, third day",able to walk with their walker
same,ambulation,"[1]; 4 mg/kg IV, after five days",able to take a few steps without their walker
same,duration of stability after initial course,"[1]; after initial 4 mg/kg IV for five days, then recurrence of ataxia and increased headaches, less severe",stable for approximately one week
same,response of relapses,[1]; consecutive courses of daptomycin for three to five days,respond very rapidly
same,frequency of relapses,[1]; daptomycin at regular intervals (4 mg/kg IV once a week with solumedrol 1 gram IV),marked decrease in the frequency of their relapses
same,frequency of relapses and neurological disability,[1]; intravenous daptomycin 4 mg/kg,stabilized both in terms of the frequency of their relapses and neurological disability
same,"left upper extremity strength, sensation, numbness",[2]; Patient A,numbness in their left arm was improved
same,walking,"[2]; Patient A, after the first daptomycin treatment (100 mg for four weeks)",slight improvement in walking
same,gait / need of cane,"[2]; Patient A, after the second treatment (500 mg daily about four weeks)","did not require their cane, but could walk unassisted"
same,progressive neurological disability,"[2]; Patient A, after treatment with daptomycin for MRSA skin infections",stabilized
same,walking,"[2]; Patient A, during and after treatment",able to walk extended distances without their cane
same,EDSS (Expanded Disability Status Scale),"[2]; Patient A, four weeks after discontinuing daptomycin, EDSS was 6.0 before, 100 mg for four weeks, re-treatment 500 mg daily about four weeks",2.5
same,"muscle and nerve pain, muscle stiffness",[2]; Patient A,improvement in muscle pain and stiffness
same,"muscle and nerve pain, muscle stiffness",[2]; [4],significant decrease in their muscle and nerve pain as well as muscle stiffness
same,"left upper extremity strength, sensation, numbness",[2]; [4],increase in strength and sensation of their left upper extremity
same,functional improvement,[2]; person with SPMS poorly responsive to other therapies,dramatic and sustained functional improvement
same,subgroup response,[3]; [5],0%
same,subgroup response (responders/treated),[3]; [5],0/2
same,patient-reported strength and sensation,"[3]; four out of seventeen patients given daptomycin for acute relapses, 4 mg/kg IV",Three patients reported improvement in their strength and sensation
same,creatine phosphokinase level (CPK),"[3]; human, in vivo",217
same,hospitalizations,"[3]; human, in vivo",Two patients were hospitalized for confusion and increased symptoms
same,most common side effect during the course of therapy,"[3]; human, in vivo",fatigue
same,fatigue associated with therapy,"[3]; human, in vivo, iv, 4 mg/kg",Three patients noted that daptomycin therapy was associated with significant fatigue
same,EDSS (last),"[3]; patient eight, SPMS, DD 12 yrs, EDSS pretx 7, 4 mg/kg × one dose, status D (discontinued)",7
same,EDSS (last),"[3]; patient eighteen, SPMS, DD 5 yrs, EDSS pretx 6, 4 mg/kg × 5 days, then 4 mg/kg q week, status D (discontinued)",6
same,EDSS (last),"[3]; patient eleven, SPMS, DD 24 yrs, EDSS pretx 6.5, 4 mg/kg/day × 14 days (relapse), status D (discontinued)",6.5
same,EDSS (last),"[3]; patient fifteen, SPMS, DD 25 yrs, EDSS pretx 6.5, 4 mg/kg/d × 5 days (two courses), 4 mg/kg/week, status A (active)",6.5
same,EDSS (last),"[3]; patient five, RRMS, DD 7 yrs, EDSS pretx 2.5, 4 mg/kg/day × 5 days, status D (discontinued)",2.5
same,EDSS (last),"[3]; patient four, RRMS, DD 15 yrs, EDSS pretx 2.5, 4 mg/kg/d × 14 days, then 4 mg/kg/q 1-2 wks, status D (discontinued)",2
same,EDSS (last),"[3]; patient fourteen, SPMS, DD 9 yrs, EDSS pretx 6, 4 mg/kg × 5 days, then 4 mg/kg q 2 wks, status A (active)",6
same,EDSS (last),"[3]; patient nine, SPMS, DD 13 yrs, EDSS pretx 6.5, 4 mg/kg/d × 5 days, 4 mg/kg q 2 wks, status A (active)",6.5
same,EDSS (last),"[3]; patient nineteen, SPMS, DD 21 yrs, EDSS pretx 6.5, 4 mg/kg × 21 days. D/Ced p 2½ wks, status D (discontinued)",6.5
same,EDSS (last),"[3]; patient one, TMS, DD 12 yrs, EDSS pretx 6, 4 mg/kg × 21 days, status D (discontinued)",6
same,EDSS (last),"[3]; patient seven, RRMS, DD 6 yrs, EDSS pretx 3.5, 4 mg/kg/d × 14 days, status D (discontinued)",3.5
same,EDSS (last),"[3]; patient seventeen, RRMS, DD 7 yrs, EDSS pretx 0, 4 mg/kg/d × 3 days, then 4 mg/kg/week, status A (active)",1
same,EDSS (last),"[3]; patient six, RPMS, DD 12 yrs, EDSS pretx 6, 4 mg/kg/d × 3 days, then 4 mg/kg/week, status D (discontinued)",6
same,EDSS (last),"[3]; patient sixteen, PPMS, DD 18 yrs, EDSS pretx 8.5, 4 mg/kg/d × 15 days, the 4 mg/kg/week, status D (discontinued)",8.5
same,EDSS (last),"[3]; patient ten, RRMS, DD 15 yrs, EDSS pretx 3, 4 mg/kg/d × 16 days, 4 mg/kg/wk × 4, then 4 mg/kg/q o wk, status A (active)",3
same,EDSS (last),[3]; [6],3.5
same,Outcome,[3]; [6],No benefit
same,EDSS (last),"[3]; patient thirty, SPMS, DD 17 yrs, EDSS pretx 6, 4 mg/kg/d × 10 days, status D (discontinued)",6
same,EDSS (last),"[3]; patient three, RPMS, DD 18 yrs, EDSS pretx 6.5, 4 mg/kg/d × 5 days, status D (discontinued)",6.5
same,EDSS (last),"[3]; patient twelve, SPMS, DD 9 yrs, EDSS pretx 4, 4 mg/kg × 21 days, status D (discontinued)",4
same,EDSS (last),"[3]; patient twenty, SPMS, DD 16 yrs, EDSS pretx 6.5, 4 mg/kg/day × 21 days, then 4 mg/kg q 2 weeks, status A (active)",6.5
same,EDSS (last),"[3]; patient twenty-eight, SPMS, DD 15 yrs, EDSS pretx 6.5, 4 mg/kg/d × 10 days, then 4 mg/kg/wk, status A (active)",6
same,EDSS (last),"[3]; patient twenty-five, SPMS, DD 6 yrs, EDSS pretx 6.5, 4 mg/kg/d × 5 days, status D (discontinued)",7
same,EDSS (last),"[3]; patient twenty-four, SPMS, DD 15 yrs, EDSS pretx 6.5, 4 mg/kg/d × 10 days, then 4 mg/kg/wk, status A (active)",6.5
same,EDSS (last),"[3]; patient twenty-nine, SPMS, DD 16 yrs, EDSS pretx 6.5, 4 mg/kg × 21 days, then 4 mg/kg q 2 wks, status A (active)",6.5
same,EDSS (last),"[3]; patient twenty-one, SPMS, DD 11 yrs, EDSS pretx 5.5, 4 mg/kg/day × 21 days, 4 mg/kg q wk. 6 mg/kg/d times 14 days, status D (discontinued)",6
same,EDSS (last),"[3]; patient twenty-seven, SPMS, DD 10 yrs, EDSS pretx 6, 4 mg/kg/d × 5 days, 2 mg/kg q 2 wks, status A (active)",6
same,EDSS (last),"[3]; patient twenty-six, TMS, DD 23 yrs, EDSS pretx 4, 4 mg/kg/d × 14 days, status D (discontinued)",4
same,EDSS (last),"[3]; patient twenty-three, RRMS, DD 11 yrs, EDSS pretx 2, 4 mg/kg × 5 days (relapse). Repeated 3 mos later (relapse), status D (discontinued)",2.5
same,EDSS (last),"[3]; patient twenty-two, SPMS, DD 6 yrs, EDSS pretx 6.5, 4 mg/k/d × 5 days, status D (discontinued)",6.5
same,EDSS (last),"[3]; patient two, SPMS, DD 11 yrs, EDSS pretx 6, 500 mg IV × 5 weeks, 4 mg/kg × 4 wks, 4 mg/kg q wk, status A (active)",2.5
same,patients showing clinically significant improvement in symptoms of multiple sclerosis,[3]; patients with progressive and relapsing MS unresponsive to multiple therapies,47%
same,subgroup response,[3]; primary progressive MS (PPMS),0%
same,subgroup response (responders/treated),[3]; primary progressive MS (PPMS),0/1
same,subgroup response,[3]; relapsing remitting MS (RRMS),50%
same,subgroup response (responders/treated),[3]; relapsing remitting MS (RRMS),3/6
same,subgroup response,[3]; [7],47%
same,subgroup response (responders/treated),[3]; [7],9/19
same,patient-reported strength,"[3]; thirteen patients with chronic progressive multiple sclerosis, 4 mg/kg IV",Nine patients reported better strength
same,patients who responded to treatment,[3]; total of 30 patients,47%
same,patients who responded to treatment (number),[3]; total of 30 patients,14
same,subgroup response,[3]; transitional MS (TMS),100%
same,subgroup response (responders/treated),[3]; transitional MS (TMS),2/2
